The conditions of assay [1]: value disclosed by Fridovich et al., J. Biol. Chem., 273, 24251 (1998); read-out: IC50 (SOD activity); cited from earlier work.
The conditions of assay [2]: value disclosed by Ohse, Kawakami et al., J. Inorg. Biochem., 85, 201 (2001); cited from earlier work.
The nature of assay [3]: SOD activity by the cytochrome c method (xanthine/xanthine oxidase). Type of assay: biochemical. The conditions noted are these: pH 7.8, 25° C., metalloporphyrin concentration. The procedure: The SOD activity (i.e. O2— extinction activity) of Por-embedding niosome was evaluated according to the cytochrome c method ((1) J. M. Mccord and I. Fridovich, J. Biol. Chem., 244, 6049 (1969) and (2) J. Butler, W. H. Kopenol, E. Margoliash, J. Biol. Chem., 257, 10747 (1982)). A specific procedure was as follows: Five or more Por-embedding niosome solutions (A solutions) with different metalloporphyrin concentrations ranging from 0 to 1,000 μM were prepared. […] The UV-vis was also measured for a solution without addition of Por-embedding niosome (blank) in the same manner.
The ferrocytochrome c formation rates in a solution not containing Por-embedding niosome (vo) and a solution containing Por-embedding niosome (vi) were determined from the relationship between the time and the absorbance at 550 nm in the UV-vis measurement over time. The inhibition coefficient (IC) was calculated according to the following formula to determine the concentration of metalloporphyrin when IC=50% (IC50) from the relationship between the concentration of metalloporphyrin complex and IC. […] The SOD activity of MnT4MPyP and the like was evaluated in the same manner for reference. […]

Assay [4] can be described thus: SOD activity by the stopped flow method (potassium superoxide). Format: biochemical. The conditions noted are these: HEPES buffer pH 8.1, 36° C. The procedure:
The SOD activity (i.e. ° 2-extinction activity) of Por-embedding niosome was evaluated according to the stopped flow method of Riley et al. (D. P. Riley, W. L. Rivers, and R. H. Weiss, Anal. Biochem., 196, 344 (1991)). A specific procedure was as follows: 60 mM HEPES/HEPES Na buffer solutions (8.1 pH) containing Por-embedding niosome at different concentrations were rapidly mixed with a dimethyl sulfoxide solution of potassium superoxide, which is an O2^−. generation source, at 36° C. to measure over time an attenuation of absorbance at 245 nm due to O2^−. (a decay curve of O2^−. extinction reaction). The relationship of ln (absorbance) and time was determined from the decay curve. The apparent rate constant was calculated from the inclination of the resulting relationship. The rate constant (kcat) of the O2^−. extinction reaction was then determined from the inclination of the relationship of the metalloporphyrin complex concentration and the apparent rate constant.

Where two headings read alike, the source gives them in different places.

We go through two molecules from patent publication US20080269184A1, “Niosome Having Metal Porphyrin Complex Embedded Therein, Process For Producing The Same And Drug With The Use Thereof” (priority 2004, published 2008).

In the case of `C[n+]1ccc(-c2c3nc(c(-c4cc[n+](C)cc4)c4ccc([n-]4)c(-c4cc[n+](C)cc4)c4nc(c(-c5cc[n+](C)cc5)c5ccc2[n-]5)C=C4)C=C3)cc1.[Mn+2]` [MnT4MPyP, Manganese[5,10,15,20-tetrakis(4-methylpyridyl)porphyrin]], the IC50 in assay [1] was 700 nM; in assay [3], 430 nM. The kcat (rate constant of the O2−. extinction reaction) in assay [2] is 2.2e+07 M⁻¹ s⁻¹; in assay [4], 1.4e+07 M⁻¹ s⁻¹.
In the case of “manganese[5,10,15,20-tetrakis(2-methylpyridyl)porphyrin] [MnT2MPyP]”, 180 nM corresponded to half-maximal inhibition in assay [3] (IC50). In addition, in assay [4], the “kcat (rate constant of the O2−. extinction reaction)” value is 2.1e+07 M⁻¹ s⁻¹.
